How the values were obtained:
[1] = system: white spot syndrome virus (WSSV); assay: Stability assay in aquacultural water (residual anti-WSSV activity); set-up: species or system Litopenaeus vannamei; settings: 28 °C, nonlinear regression best-fit
Description: Aquaculture water was obtained from culture ponds of the Zhejiang Mariculture Research Institute Qingjiang Station. C2/C7, with a final concentration of 10 mg/L, was added to aquacultural water samples in the presence of natural light for up to 4 days, at 28 °C, and finally preincubated with WSSV (final viral titer of 1.6 × 10^5 copies/µL) to infect shrimp larvae, followed by quantification of the copy number of the viral genome at 72 hpi, and the survival rate of the shrimp was evaluated.

[2] = Solubility / precipitation in aquacultural water; format: physicochemical; settings: for lowest precipitation concentration / lowest precipitation concentration (bracketed value in LC50 48 h column) / lowest precipitation concentration (bracketed value in LC50 72 h column): test range 0.4~100 mg/L, aquacultural water, LC50 NONE; for solubility in aquacultural water: tested concentration 16 mg/L, 28 °C
Description: Prior to evaluation of the anti-WSSV activity of coumarins, the safety doses for larvae needed to be determined. […] In contrast, the electron-withdrawing group was more toxic than the electron-donating group, with the LC50 of A5‒A8 being <5 mg/L at 72 h. […] Based on preliminary analysis of the structure-activity relationship (SAR) of similar spatial structures with different substituents of electron-donating and electron-withdrawing groups to coumarins A1, B1, and C1, we considered that […] of compounds; this provides a basis for further research.
All conventional reagents and solvents are purchased directly from commercial companies and no further purification is required. Organic solvents were purchased from Sinopharm chemical reagent Co., Ltd. and purified by distillation and moisture was excluded from the glass apparatus using CaCl2 drying tubes. Throughout this study, silica gel H (200–300 mesh; Qingdao Marine Chemical Factory, Qingdao, China) was used for the column chromatography. For thin layer chromatographic (TLC) plates, Silica gel (GF254) (Qingdao Marine Chemical Factory, Qingdao, China) were used for thin layer chromatographic (TLC) analysis, and all of the spots and bands were detected by UV irradiation (254, 365 nm). The intermediates and products were characterized by electrospray ionization mass spectrometry (TripleTOF5600þ; AB SCIEX Pte. Ltd., Boston, MA, USA), ^1H NMR and ^13C NMR (Bruker AM500 spectrometer; Bruker Corporation, Berne, Switzerland). The derivatives were dissolved in 100% dimethyl sulfoxide (DMSO; Beyotime Biotechnology, Haimen, China), stored at 4 °C prior to antiviral evaluation, and used within 6 months. For solubility, the stock solutions, at a concentration of 50 mg/mL, were sonicated for approximately 10 min to ensure that the derivatives were fully dissolved and mixed.

[3] = system: white spot syndrome virus (WSSV); assay: Pre-exposure (pre-treatment) of larvae to compound before WSSV infection; format: in vivo, Litopenaeus vannamei; settings: for change in copy number of the viral genome, pre-exposure vs virus alone: larvae exposed up to 8 h prior to WSSV infection, 10 mg/L; for time to which shrimp death was delayed: pre-exposure 10 mg/L, untreated 100% mortality by 72 h
Description: For pre-treatment, C2/C7 (final concentration of 10 mg/L) was applied to shrimp larvae for 1, 4, and 8 h, followed by addition of WSSV (while the coumarin compounds were simultaneously removed) at a final viral titer of 1.6 × 10^5 copies/µL. The surviving shrimps were euthanized with MS-222 and frozen at −80 °C until being processed. The copy number of viral genome in samples was quantified by RT-qPCR.

Question: With “2-amino-4-(4-chlorophenyl)-5-oxo-4H,5H-pyrano[3,2-c]chromene-3-carbonitrile [C7]” as the compound, how does the “calculated inhibitory half-life in water samples” value ([1]; 10 mg/L) read?
Answer: Its value is 57.6 h.

Question: And the “lowest precipitation concentration” value [2]?
Answer: Its value is “NONE (16) mg/L”.

Question: And the “lowest precipitation concentration (bracketed value in LC50 48 h column)” value [2]?
Answer: Its value is “NONE (16) mg/L”.

Question: What about the “lowest precipitation concentration (bracketed value in LC50 72 h column)” value [2] of the same compound?
Answer: The value was “NONE (16) mg/L”.

Question: And the “solubility in aquacultural water” value [2]?
Answer: Its value is “insoluble”.

Question: What about the “change in copy number of the viral genome, pre-exposure vs virus alone” value [3] of the same compound?
Answer: The value was “slight changes”.

Question: What about the “time to which shrimp death was delayed” value [3] of the same compound?
Answer: The value was 96 hpi.

Question: Which half-life at 10 mg/L ([1]; buffer, read-out: calculated inhibitory half-life in water samples (converted)) does the source give for `Cc1ccc(C2C(C#N)=C(N)Oc3c2c(=O)oc2ccccc32)cc1` (centres unmarked) [C2, 2-amino-5-oxo-4-(p-tolyl)-4H,5H-pyrano[3,2-c]chromene-3-carbonitrile] here?
Answer: The half-life at 10 mg/L was 55.2 h.

Question: And the “lowest precipitation concentration” value [2]?
Answer: Its value is “NONE (16) mg/L”.

Question: What about the “lowest precipitation concentration (bracketed value in LC50 48 h column)” value [2] of the same compound?
Answer: Its value is “NONE (16) mg/L”.

Question: And the “lowest precipitation concentration (bracketed value in LC50 72 h column)” value [2]?
Answer: Its value is “NONE (16) mg/L”.

Question: What about the “solubility in aquacultural water” value [2] of the same compound?
Answer: Its value is “insoluble”.

Question: What about the “change in copy number of the viral genome, pre-exposure vs virus alone” value [3] of the same compound?
Answer: Its value is “slight changes”.

Question: What about the “time to which shrimp death was delayed” value [3] of the same compound?
Answer: Its value is 96 hpi.

From publication PMC8036603, “Small Molecule Inhibitors of White Spot Syndrome Virus: Promise in Shrimp Seedling Culture” (International Journal of Molecular Sciences, 2021)
